Measurements taken from US8440708B2, “Triazole-substituted arylamides as P2X3 and P2X2/3 antagonists” (Roche Palo Alto LLC, priority 2007, dated 2013).

Key:
[1] = molecular target: T1, rat P2X3 receptor (Rattus norvegicus, UniProt P49654); assay: P2X3/P2X2/3 FLIPR (Fluorometric Imaging Plate Reader) Assay, P2X3; format: cell-based; conditions: CHO-K1 cells transfected with rat P2X3; agonist α,β-meATP 1 μM; Table 1; read-out: P2X3 pKi (converted)
T1 construct: expressed in transfected cells; host or cells: CHO-K1
T1 sequence (P49654 1-397): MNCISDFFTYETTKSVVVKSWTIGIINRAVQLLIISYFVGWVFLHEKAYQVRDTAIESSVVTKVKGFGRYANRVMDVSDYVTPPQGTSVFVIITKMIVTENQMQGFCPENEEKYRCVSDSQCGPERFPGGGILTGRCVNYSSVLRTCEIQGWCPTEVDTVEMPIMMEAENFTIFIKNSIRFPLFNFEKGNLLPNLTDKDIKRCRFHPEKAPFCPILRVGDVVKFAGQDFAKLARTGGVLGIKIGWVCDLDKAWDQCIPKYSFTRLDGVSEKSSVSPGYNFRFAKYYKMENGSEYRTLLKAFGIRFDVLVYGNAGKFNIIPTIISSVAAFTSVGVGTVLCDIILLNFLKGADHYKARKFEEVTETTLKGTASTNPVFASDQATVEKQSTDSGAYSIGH
Description: (§1) P2X3/P2X2/3 FLIPR (Fluorometric Imaging Plate Reader) Assay
(§2) CHO-K1 cells were transfected with cloned rat P2X3 or human P2X2/3 receptor subunits and passaged in flasks. 18-24 hours before the FLIPR experiment, cells were released from their flasks, centrifuged, and resuspended in nutrient medium at 2.5×10^5 cells/ml. The cells were aliquoted into black-walled 96-well plates at a density of 50,000 cells/well and incubated overnight in 5% CO2 at 37° C. On the day of the experiment, cells were washed in FLIPR buffer (calcium- and magnesium-free Hank's balanced salt solution, 10 mM HEPES, 2 mM CaCl2, 2.5 mM probenecid; FB). Each well received 100 μl FB and 100 μl of the fluorescent dye Fluo-3 AM [2 μM final conc.]. After a 1 hour dye loading incubation at 37° C., the cells were washed 4 times with FB, and a final 75 μl/well FB was left in each well.
(§3) Test compounds (dissolved in DMSO at 10 mM and serially diluted with FB) or vehicle were added to each well (25 μl of a 4× solution) and allowed to equilibrate for 20 minutes at room temperature. The plates were then placed in the FLIPR and a baseline fluorescence measurement (excitation at 488 nm and emission at 510-570 nm) was obtained for 10 seconds before a 100 μl/well agonist or vehicle addition. The agonist was a 2× solution of α,β-meATP producing a final concentration of 1 μM (P2X3) or 5 μM (P2X2/3). Fluorescence was measured for an additional 2 minutes at 1 second intervals after agonist addition. A final addition of ionomycin (5 μM, final concentration) was made to each well of the FLIPR test plate to establish cell viability and maximum fluorescence of dye-bound cytosolic calcium. Peak fluorescence in response to the addition of α,β-meATP (in the absence and presence of test compounds) was measured and inhibition curves generated using nonlinear regression. PPADS, a standard P2X antagonist, was used as a positive control.

[2] = molecular target: T2, human P2X2/3 receptor (Homo sapiens, UniProt P56373+Q9UBL9); assay: P2X3/P2X2/3 FLIPR (Fluorometric Imaging Plate Reader) Assay, P2X2/3; format: cell-based; conditions: CHO-K1 cells transfected with human P2X2/3; agonist α,β-meATP 5 μM; Table 1; read-out: P2X2/3 pKi (converted)
T2 construct: expressed in transfected cells; host or cells: CHO-K1
T2 sequence (Q9UBL9 1-471): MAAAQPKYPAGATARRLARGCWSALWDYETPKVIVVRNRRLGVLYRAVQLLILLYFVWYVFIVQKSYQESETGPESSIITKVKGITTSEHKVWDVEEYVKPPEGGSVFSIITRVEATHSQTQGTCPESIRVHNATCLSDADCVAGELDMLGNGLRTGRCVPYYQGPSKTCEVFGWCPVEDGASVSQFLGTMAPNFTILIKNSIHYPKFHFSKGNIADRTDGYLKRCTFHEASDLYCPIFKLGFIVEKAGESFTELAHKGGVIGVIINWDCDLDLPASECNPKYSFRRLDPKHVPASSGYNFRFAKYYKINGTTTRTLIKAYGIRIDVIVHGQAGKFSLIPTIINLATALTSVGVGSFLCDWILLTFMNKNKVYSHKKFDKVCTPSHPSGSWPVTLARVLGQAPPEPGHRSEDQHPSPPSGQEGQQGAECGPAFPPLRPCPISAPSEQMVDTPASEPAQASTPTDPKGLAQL
T2 sequence (P56373 1-397): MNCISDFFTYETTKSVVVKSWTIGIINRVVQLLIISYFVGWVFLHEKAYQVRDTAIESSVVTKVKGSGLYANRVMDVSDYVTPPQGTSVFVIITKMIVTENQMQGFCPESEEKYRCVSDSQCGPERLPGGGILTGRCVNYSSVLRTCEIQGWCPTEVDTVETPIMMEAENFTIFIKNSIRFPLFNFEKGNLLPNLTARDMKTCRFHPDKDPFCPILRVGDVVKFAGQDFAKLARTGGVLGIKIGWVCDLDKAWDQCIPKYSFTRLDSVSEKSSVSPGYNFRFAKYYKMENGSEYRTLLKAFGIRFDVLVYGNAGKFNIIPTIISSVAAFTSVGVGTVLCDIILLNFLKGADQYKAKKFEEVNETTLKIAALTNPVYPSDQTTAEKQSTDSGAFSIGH
Description: as §1, §2, §3

Row | Ki [1] [µM] | Ki [2] [µM] | Structure (SMILES)
1 | 0.00977 | 0.55 | CCn1nncc1-c1cc(C(=O)NC(C)c2cnccn2)cc(-c2ccc(C)cc2)c1 (stereo not drawn) [Compound 38, 5-(3-Ethyl-3H-[1,2,3]triazol-4-yl)-4′-methyl-biphenyl-3-carboxylic acid (1-pyrazin-2-yl-ethyl)-amide]
2 | 8.51 | 10 | CCn1cc(-c2cc(C(=O)N[C@H](C)COC)cc(-c3ccc(C)cc3)c2)nn1 [Compound 39, 5-(1-Ethyl-1H-[1,2,3]triazol-4-yl)-4′-methyl-biphenyl-3-carboxylic acid ((R)-2-methoxy-1-methyl-ethyl)-amide]
3 | 10 | 10 | CCn1cc(-c2cc(C(=O)N[C@@H](C)CO)cc(-c3ccc(C)cc3)c2)nn1 [Compound 40, 5-(1-Ethyl-1H-[1,2,3]triazol-4-yl)-4′-methyl-biphenyl-3-carboxylic acid ((S)-2-hydroxy-1-methyl-ethyl)-amide]
4 | 0.182 | 7.41 | CCn1cc(-c2cc(C(=O)NC(C)c3cnccn3)cc(-c3ccc(C)cc3)c2)nn1 (stereo not drawn) [Compound 41, 5-(1-Ethyl-1H-[1,2,3]triazol-4-yl)-4′-methyl-biphenyl-3-carboxylic acid (1-pyrazin-2-yl-ethyl)-amide]
5 | 0.00776 | 0.813 | CCn1cnnc1-c1cc(C(=O)NC(C)c2cnccn2)cc(-c2ccc(C)cc2)c1 (stereo not drawn) [Compound 43, 5-(4-Ethyl-4H-[1,2,4]triazol-3-yl)-4′-methyl-biphenyl-3-carboxylic acid (1-pyrazin-2-yl-ethyl)-amide]
6 | 0.0813 | 0.759 | CC(NC(=O)c1cc(-c2ccc(Cl)cc2)cc(-n2ncnc2N(C)C)c1)c1cnccn1 (stereo not drawn) [Compound 44, 4′-Chloro-5-(5-dimethylamino-[1,2,4]triazol-1-yl)-biphenyl-3-carboxylic acid (1-pyrazin-2-yl-ethyl)-amide]
7 | 0.0129 | 3.16 | COCc1ncnn1-c1cc(C(=O)N[C@@H](C)CO)cc(-c2ccc(C)cc2)c1 [Compound 45, 5-(5-Methoxymethyl-[1,2,4]triazol-1-yl)-4′-methyl-biphenyl-3-carboxylic acid ((S)-2-hydroxy-1-methyl-ethyl)-amide]
8 | 0.00513 | 0.204 | COCc1ncnn1-c1cc(C(=O)NC(C)c2cnccn2)cc(-c2ccc(C)cc2)c1 (stereo not drawn) [Compound 46, 5-(5-Methoxymethyl-[1,2,4]triazol-1-yl)-4′-methyl-biphenyl-3-carboxylic acid (1-pyrazin-2-yl-ethyl)-amide]
9 | 0.00468 | 2.04 | COC(C)c1ncnn1-c1cc(C(=O)N[C@@H](C)CO)cc(-c2ccc(C)cc2)c1 (stereo partly drawn) [Compound 47, 5-[5-(1-Methoxy-ethyl)-[1,2,4]triazol-1-yl]-4′-methyl-biphenyl-3-carboxylic acid ((S)-2-hydroxy-1-methyl-ethyl)-amide]
10 | 0.00389 | 0.0437 | COC(C)c1ncnn1-c1cc(C(=O)NC(C)c2cnccn2)cc(-c2ccc(C)cc2)c1 (stereo not drawn) [Compound 48, 5-[5-(1-Methoxy-ethyl)-[1,2,4]triazol-1-yl]-4′-methyl-biphenyl-3-carboxylic acid (1-pyrazin-2-yl-ethyl)-amide]
11 | 0.00513 | 0.282 | Cc1ccc(-c2cc(C(=O)NC(C)c3cnccn3)cc(-n3ncnc3C(C)O)c2)cc1 (stereo not drawn) [Compound 49, 5-[5-(1-Hydroxy-ethyl)-[1,2,4]triazol-1-yl]-4′-methyl-biphenyl-3-carboxylic acid (1-pyrazin-2-yl-ethyl)-amide]
12 | 0.0269 | 0.537 | COc1ncnn1-c1cc(C(=O)NC(C)c2cnccn2)cc(-c2ccc(Cl)cc2)c1 (stereo not drawn) [Compound 50, 4′-Chloro-5-(5-methoxy-[1,2,4]triazol-1-yl)-biphenyl-3-carboxylic acid (1-pyrazin-2-yl-ethyl)-amide]
13 | 0.2 | 2.95 | CC(NC(=O)c1cc(-c2ccc(Cl)cc2)cc(-n2cncn2)c1)c1cnccn1 (stereo not drawn) [Compound 51, 4′-Chloro-5-[1,2,4]triazol-1-yl-biphenyl-3-carboxylic acid (1-pyrazin-2-yl-ethyl)-amide]
14 | 0.0141 | 0.891 | CC(C)Oc1ncnn1-c1cc(C(=O)NC(C)c2cnccn2)cc(-c2ccc(Cl)cc2)c1 (stereo not drawn) [Compound 52, 4′-Chloro-5-(5-isopropoxy-[1,2,4]triazol-1-yl)-biphenyl-3-carboxylic acid (1-pyrazin-2-yl-ethyl)-amide]
15 | 0.0129 | 0.309 | Cc1ccc(-c2cc(C(=O)NC(C)c3cnccn3)cc(-c3ncnn3C(C)C)c2)cc1 (stereo not drawn) [Compound 53, 5-(2-Isopropyl-2H-[1,2,4]triazol-3-yl)-4′-methyl-biphenyl-3-carboxylic acid (1-pyrazin-2-yl-ethyl)-amide]
16 | 0.0214 | 2.45 | Cc1ccc(-c2cc(C(=O)N[C@@H](C)CO)cc(-c3ncnn3C(C)C)c2)cc1 [Compound 54, 5-(2-Isopropyl-2H-[1,2,4]triazol-3-yl)-4′-methyl-biphenyl-3-carboxylic acid (2-hydroxy-1-methyl-ethyl)-amide]
17 | 0.00537 | 0.457 | Cc1ccc(-c2cc(C(=O)N[C@@H](C)CO)cc(-n3ncnc3C(C)C)c2)nc1 [Compound 55, N-(2-Hydroxy-1-methyl-ethyl)-3-(5-isopropyl-[1,2,4]triazol-1-yl)-5-(5-methyl-pyridin-2-yl)-benzamide]
18 | 0.00457 | 0.0427 | Cc1ccc(-c2cc(C(=O)NC(C)c3cnccn3)cc(-n3ncnc3C(C)C)c2)nc1 (stereo not drawn) [Compound 56, 3-(5-Isopropyl-[1,2,4]triazol-1-yl)-5-(5-methyl-pyridin-2-yl)-N-(1-pyrazin-2-yl-ethyl)-benzamide]
19 | 0.0741 | 7.94 | COC(C)c1ncnn1-c1cc(C(=O)N[C@@H](C)CO)cc(-c2ccc(C)cn2)c1 (stereo partly drawn) [Compound 57, N-(2-Hydroxy-1-methyl-ethyl)-3-[5-(1-methoxy-ethyl)-[1,2,4]triazol-1-yl]-5-(5-methyl-pyridin-2-yl)-benzamide]
20 | 0.017 | 0.132 | COC(C)c1ncnn1-c1cc(C(=O)NC(C)c2cnccn2)cc(-c2ccc(C)cn2)c1 (stereo not drawn) [Compound 58, 3-[5-(1-Methoxy-ethyl)-[1,2,4]triazol-1-yl]-5-(5-methyl-pyridin-2-yl)-N-(1-pyrazin-2-yl-ethyl)-benzamide]
21 | 0.0776 | 6.17 | Cc1ccc(-c2cc(C(=O)N[C@@H](C)CO)cc(-n3ncnc3C3CC3)c2)nc1 [Compound 59, 3-(5-Cyclopropyl-[1,2,4]triazol-1-yl)-N-(2-hydroxy-1-methyl-ethyl)-5-(5-methyl-pyridin-2-yl)-benzamide]
